The values that follow come from patent publication US20070249670A1, “Glycogen Phosphorylase Inhibitor Compounds and Pharmaceutical Compositions Thereof” (SMITHKLINE BEECHAM CORPORATION, priority 2004, published 2007).

This assay addresses T1, human liver glycogen phosphorylase a (HLGPa) (Homo sapiens, UniProt P06737).
T1 construct: creating a full-length cDNA fused at the 5′ end to codons for methionine-glycine-alanine-histidine; 6xHis tag (leader Met-Gly-Ala-His6-Gly-Gly) (N); made in house; host or cells: E. coli (bacterial expression plasmid pTXK1007LTev)
T1 sequence (P06737 2-847 limits assumed): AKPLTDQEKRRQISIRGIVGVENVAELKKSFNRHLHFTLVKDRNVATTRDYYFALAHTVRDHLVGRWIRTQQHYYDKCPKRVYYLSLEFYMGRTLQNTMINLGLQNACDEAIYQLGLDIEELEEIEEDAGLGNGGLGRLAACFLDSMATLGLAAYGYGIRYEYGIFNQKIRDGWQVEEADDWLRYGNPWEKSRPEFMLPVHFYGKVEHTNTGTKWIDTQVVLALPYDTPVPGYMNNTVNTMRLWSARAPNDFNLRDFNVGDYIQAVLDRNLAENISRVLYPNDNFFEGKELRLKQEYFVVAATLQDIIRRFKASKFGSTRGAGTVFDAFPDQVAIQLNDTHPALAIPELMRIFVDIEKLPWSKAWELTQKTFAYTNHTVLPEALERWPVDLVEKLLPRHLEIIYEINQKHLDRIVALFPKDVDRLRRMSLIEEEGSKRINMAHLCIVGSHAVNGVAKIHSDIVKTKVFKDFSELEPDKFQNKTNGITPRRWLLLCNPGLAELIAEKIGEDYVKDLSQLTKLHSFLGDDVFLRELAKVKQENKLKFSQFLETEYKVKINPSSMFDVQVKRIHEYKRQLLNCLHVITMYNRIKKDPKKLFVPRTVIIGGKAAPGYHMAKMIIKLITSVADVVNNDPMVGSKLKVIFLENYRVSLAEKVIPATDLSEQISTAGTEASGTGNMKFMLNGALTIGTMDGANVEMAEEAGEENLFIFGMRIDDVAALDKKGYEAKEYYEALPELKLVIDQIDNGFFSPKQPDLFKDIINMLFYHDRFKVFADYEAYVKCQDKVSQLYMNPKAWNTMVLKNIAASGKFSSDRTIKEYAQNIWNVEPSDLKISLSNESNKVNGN
The assay can be described thus: Human liver glycogen phosphorylase a enzymatic activity assay (coupled, fluorescent resorufin readout, with and without 10 mM glucose). Type of assay: biochemical. The following applies: human liver glycogen phosphorylase a; table does not say whether with or without 10 mM glucose.

Broadly, the IC50 is the concentration that gives 50% inhibition. High values mean weaker potency, low ones greater potency. `Cc1cc(C)c(NC(=O)Nc2cc(-c3ccc4c(c3)OCCO4)ccc2C(=O)N[C@H](C(=O)O)C2CCCCC2)c(C)c1` [Example 228, (2S)-Cyclohexyl({[4-(2,3-dihydro-1,4-benzodioxin-6-yl)-2-({[(2,4,6-trimethylphenyl)amino]carbonyl}amino)phenyl]carbonyl}amino)ethanoic acid] showed an IC50 of 4 nM.
`COc1ccc(-c2ccc(C(=O)N[C@H](C(=O)O)C3CCCCC3)c(NC(=O)Nc3c(C)cc(C)cc3C)c2)cc1OC` [Example 229, (2S)-({[3′,4′-Bis(methyloxy)-3-({[(2,4,6-trimethylphenyl)amino]carbonyl}amino)-4-biphenylyl]carbonyl}amino)(cyclohexyl)ethanoic acid] showed an IC50 of 3 nM.
In the case of `Cc1cc(C)c(NC(=O)Nc2cc(F)c(F)cc2C(=O)N[C@H](C(=O)O)C2CCCCC2)c(C)c1` [Example 230, (2S)-Cyclohexyl({[4,5-difluoro-2-({[(2,4,6-trimethylphenyl)amino]carbonyl}amino)phenyl]carbonyl}amino)ethanoic acid] it was 58 nM.
In turn, `COc1ccc(-c2ccc(C(=O)NC3(C(=O)O)CCCCCCC3)c(NC(=O)Nc3c(C)cc(C)cc3C)c2)cc1` [Example 231, 1-({[4′-(Methyloxy)-3-({[(2,4,6-trimethylphenyl)amino]carbonyl}amino)-4-biphenylyl]carbonyl}amino)cyclooctanecarboxylic acid] came in with an IC50 of 1 nM.
With `COc1ccc(-c2ccc(C(=O)N[C@H](C(=O)O)[C@@H](C)OC(C)(C)C)c(NC(=O)Nc3c(Cl)cc(OC(F)(F)F)cc3Cl)c2)cc1` [Example 232, N-{[3-{[({2,6-Dichloro-4-[(trifluoromethyl)oxy]phenyl}amino)carbonyl]amino}-4′-(methyloxy)-4-biphenylyl]carbonyl}-O-(1,1-dimethylethyl)-L-threonine], half-maximal inhibition (IC50) required 7 nM.
The compound `Cc1cc(C)c(NC(=O)Nc2cc(-c3cccc(F)c3)ccc2C(=O)N[C@H](C(=O)O)[C@@H](C)OC(C)(C)C)c(C)c1` [Example 233, O-(1,1-Dimethylethyl)-N-{[3′-fluoro-3-({[(2,4,6-trimethylphenyl)amino]carbonyl}amino)-4-biphenylyl]carbonyl}-L-threonine] had an IC50 of 23 nM.
As to `Cc1cc(C)c(NC(=O)Nc2cc(-c3cccc(F)c3)ccc2C(=O)N[C@H](C(=O)O)C2CCCCC2)c(C)c1` [Example 234, (2S)-Cyclohexyl({[3′-fluoro-3-({[(2,4,6-trimethylphenyl)amino]carbonyl}amino)-4-biphenylyl]carbonyl}amino)ethanoic acid], inhibition was half-maximal at 24 nM (IC50).
For `COc1ccc(-c2ccc(C(=O)N[C@H](C(=O)O)[C@@H](C)OC(C)(C)C)c(NC(=O)Nc3c(C)cc(C)cc3C)c2)cc1F` [Example 235, O-(1,1-Dimethylethyl)-N-{[3′-fluoro-4′-(methyloxy)-3-({[(2,4,6-trimethylphenyl)amino]carbonyl}amino)-4-biphenylyl]carbonyl}-L-threonine] the value was 13 nM; for `CCCc1cc(C)c(NC(=O)Nc2cc(-c3ccc(OC)cc3)ccc2C(=O)N[C@H](C(=O)O)[C@@H](C)OC(C)(C)C)c(C)c1` [Example 236, O-(1,1-Dimethylethyl)-N-{[3-({[(2,6-dimethyl-4-propylphenyl)amino]carbonyl}amino)-4′-(methyloxy)-4-biphenylyl]carbonyl}-L-threonine], 4 nM.
With `COc1ccc(-c2ccc(C(=O)N[C@H](C(=O)O)C3CCCCC3)c(NC(=O)Nc3c(C)cc(C)cc3C)c2)cc1F` [Example 237, (2S)-Cyclohexyl({[3′-fluoro-4′-(methyloxy)-3-({[(2,4,6-trimethylphenyl)amino]carbonyl}amino)-4-biphenylyl]carbonyl}amino)ethanoic acid], the IC50 turned out to be 20 nM.
The compound `COc1ccc(-c2ccc(C(=O)NC3(C(=O)O)CCCCCCC3)c(NC(=O)Nc3c(C)cc(C)cc3C)c2)cc1F` [Example 238, 1-({[3′-Fluoro-4′-(methyloxy)-3-({[(2,4,6-trimethylphenyl)amino]carbonyl}amino)-4-biphenylyl]carbonyl}amino)cyclooctanecarboxylic acid] returned an IC50 of 10 nM.
In turn, `COc1ccc(NC(=O)Nc2cc3ccccc3cc2C(=O)N[C@H](C(=O)O)C2CCCCC2)c(OC)c1` [Example 239, (2S)-[({3-[({[2,4-bis(methyloxy)phenyl]amino}carbonyl)amino]-2-naphthalenyl}carbonyl)amino](cyclohexyl)ethanoic acid] came in with a half-maximal inhibitory concentration (IC50) of 2380 nM.
Take `O=C(Nc1cc(C(F)(F)F)cc(C(F)(F)F)c1)Nc1cc2ccccc2cc1C(=O)N[C@H](C(=O)O)C1CCCCC1` [Example 240, (2S)-[({3-[({[3,5-bis(trifluoromethyl)phenyl]amino}carbonyl)amino]-2-naphthalenyl}carbonyl)amino](cyclohexyl)ethanoic acid]: the IC50 turned out to be 8180 nM.
In the case of `Cc1cccc(C)c1NC(=O)Nc1cc2ccccc2cc1C(=O)N(CC(=O)O)Cc1ccccn1` [Example 241, N-{[3-({[(2,6-dimethylphenyl)amino]carbonyl}amino)-2-naphthalenyl]carbonyl}-N-(2-pyridinylmethyl)glycine] it was 3610 nM; in that of `O=C(O)CN(Cc1ccccn1)C(=O)c1cc2ccccc2cc1NC(=O)Nc1c(Cl)cc(Cl)cc1Cl` [Example 242, N-(2-pyridinylmethyl)-N-{[3-({[(2,4,6-trichlorophenyl)amino]carbonyl}amino)-2-naphthalenyl]carbonyl}glycine], 2860 nM; in that of `Cc1cccc(C)c1NC(=O)Nc1cc2ccccc2cc1C(=O)N(CC(=O)O)CC1CCCCC1` [Example 243, N-(cyclohexylmethyl)-N-{[3-({[(2,6-dimethylphenyl)amino]carbonyl}amino)-2-naphthalenyl]carbonyl}glycine], 1770 nM.
In the case of `Cc1cccc(C)c1NC(=O)Nc1cc2ccccc2cc1C(=O)N(CC(=O)O)C1CCCC1` [Example 244, N-cyclopentyl-N-{[3-({[(2,6-dimethylphenyl)amino]carbonyl}amino)-2-naphthalenyl]carbonyl}glycine] it was 970 nM; in that of `Cc1cccc(C)c1NC(=O)Nc1cc2ccccc2cc1C(=O)N(CC(=O)O)C1CCCCC1` [Example 245, N-cyclohexyl-N-{[3-({[(2,6-dimethylphenyl)amino]carbonyl}amino)-2-naphthalenyl]carbonyl}glycine], 2130 nM; in that of `Cc1cccc(C)c1NC(=O)Nc1cc2ccccc2cc1C(=O)N(CC(=O)O)CC(=O)O` [Example 246, 2,2′-({[3-({[(2,6-dimethylphenyl)amino]carbonyl}amino)-2-naphthalenyl]carbonyl}imino)diacetic acid], 2120 nM.
For `CCCCc1ccc(NC(=O)Nc2cc3ccccc3cc2C(=O)N[C@H](C(=O)O)C2CCCCC2)cc1` [Example 247, (2S)-({[3-({[(4-butylphenyl)amino]carbonyl}amino)-2-naphthalenyl]carbonyl}amino)(cyclohexyl)ethanoic acid] the value was 10400 nM; for `O=C(Nc1ccc2c(c1)CCO2)Nc1cc2ccccc2cc1C(=O)N[C@H](C(=O)O)C1CCCCC1` [Example 248, (2S)-cyclohexyl{[(3-{[(2,3-dihydro-1-benzofuran-5-ylamino)carbonyl]amino}-2-naphthalenyl)carbonyl]amino}ethanoic acid], 15100 nM.
As to `Cc1onc(-c2ccccc2)c1NC(=O)Nc1cc2ccccc2cc1C(=O)N[C@H](C(=O)O)C1CCCCC1` [Example 249, (2S)-cyclohexyl({[3-({[(5-methyl-3-phenyl-4-isoxazolyl)amino]carbonyl}amino)-2-naphthalenyl]carbonyl}amino)ethanoic acid], the IC50 was determined as 17400 nM.
In the case of `C[C@@H](C(=O)O)N(Cc1ccccc1)C(=O)c1cc2ccccc2cc1NC(=O)Nc1c(Cl)cccc1Cl` [Example 250, N-{[3-({[(2,6-dichlorophenyl)amino]carbonyl}amino)-2-naphthalenyl]carbonyl}-N-(phenylmethyl)-L-alanine] it was 7770 nM.
For `O=C(Nc1cc2ccccc2cc1C(=O)N(Cc1ccccc1)[C@@H](Cc1ccccc1)C(=O)O)Nc1c(Cl)cccc1Cl` [Example 251, N-{[3-({[(2,6-dichlorophenyl)amino]carbonyl}amino)-2-naphthalenyl]carbonyl}-N-(phenylmethyl)phenylalanine] the value was 12200 nM; for `CCCCN(CC(=O)O)C(=O)c1cc2ccccc2cc1NC(=O)Nc1c(Cl)cccc1Cl` [Example 252, N-butyl-N-{[3-({[(2,6-dichlorophenyl)amino]carbonyl}amino)-2-naphthalenyl]carbonyl}glycine], 650 nM.
